# Earlier results, collected in US6770617B2, “Softener composition” (Kao Corporation, priority 2001, dated 2004).
# Conditions: 1-octanol/water; actual value if there was one, otherwise Clog P calculated with CLOGP v4.01
row,Structure (SMILES),log P
1,"CCCCCOCC(O)CO (stereo not drawn) [(c-1), Pentyl glyceryl ether]",0.54
2,"CCCOC(C)COC(C)CO (stereo not drawn) [(c-2), Dipropylene glycol monopropyl ether]",0.99
3,"OCCOCCOCCOc1ccccc1 [(c-3), Triethylene glycol monophenyl ether]",1.32
